Assay results reported in patent US12281080B2, “Quinoline-based compounds and methods of inhibiting CDK8/19” (University of South Carolina, priority 2018, dated 2025).
Where two headings read alike, the source gives them in different places.

What was measured:
MYC = test: QPCR gene expression in TNFα-treated HEK293 cells; format: cell-based, human; conditions: 1 μM, TNFα-treated HEK293 cells, QPCR; for inhibition at 1 µM: Homo sapiens, read-out: Inhibition at 1 μM (% Ctrl) MYC
From the text: (§1) Two types of cell-based assays for CDK8/19 inhibition were used to test the efficacy of quinoline quinolone compounds described herein (FIG. 3A). The first cell-based assay, which measures the effects of CDK8/19 inhibitors on RNA levels of CDK8/19-regulated genes by quantitative reverse transcription-PCR (QPCR), is based on the ability of CDK8/19 inhibitors to suppress the induction of NFκB-inducible genes by TNFα and to inhibit basal expression of MYC in human embryonic kidney (HEK) 293 cells, as previously described. In this assay, 293 cells growing in DMEM (High-glucose) media supplemented with 10% FBS are pre-treated with the tested inhibitors or DMSO control for 1 hour and then treated with 10 ng/mL TNFα (an activator of NFκB) for 2 hours (in the presence or absence of the tested inhibitors), followed by RNA extraction and QPCR analysis of RNA expression of specific genes conducted as described (Chen et al., ibid), using housekeeping genes RPL13A and GAPDH as normalization standards. […] All the quinoline derivatives inhibited the expression of all three genes.

CXCL1 = test: QPCR gene expression in TNFα-treated HEK293 cells; format: cell-based, human; conditions: 1 μM, TNFα-treated HEK293 cells, QPCR; for inhibition at 1 µM: Homo sapiens, read-out: Inhibition at 1 μM (% Ctrl) CXCL1
From the text: as §1

IL8 = test: QPCR gene expression in TNFα-treated HEK293 cells; format: cell-based, human; conditions: 1 μM, TNFα-treated HEK293 cells, QPCR; for inhibition at 1 µM: Homo sapiens, read-out: Inhibition at 1 μM (% Ctrl) IL8
From the text: as §1

HL60-Luc cells = test: HL60-Luc proliferation assay (BLI); format: cell-based; conditions: HL-60-Luc, 168 h; 7 days
Description: The anti-leukemic activity was also evaluated with a HL60 assay. The HL60 assay was performed by a similar procedure as MV4-11 assay. A derivative of the HL-60 leukemia cell line was generated to express Luciferase and ZsGreen by lentiviral infection with pHIV-Luc-ZsGreen, to enable leukemia growth analysis by bioluminescence imaging (BLI). The initial Luciferase-ZsGreen transduced cell population was sorted for ZsGreen positivity with fluorescence activated cell sorting and individual clones were tested for luciferase expression. […] The HL-60 assay was performed in 96-well plates by treating the HL60-Luc cells with testing compounds at different concentrations for 7 days, followed by BLI to quantify the effects of test articles on cell proliferation.

MV4-11 cells = test: MV4-11-Luc proliferation assay (BLI); format: cell-based; conditions: Homo sapiens, MV4-11, 168 h; 7 days
Description: The anti-leukemic activity was evaluated with a MV4-11 assay. The population of MV4-11 cells, which depend on CDK8/19 for their proliferation, was made to express Luciferase and ZsGreen by lenvtiral infection with pHIV-Luc-ZsGreen, to enable leukemia growth analysis by bioluminescence imaging (BLI). The initial Luciferase-ZsGreen transduced cell population was sorted for ZsGreen positivity with fluorescence activated cell sorting. The MV4-11 assay was performed in 96-well plates by treating the MV4-11-Luc cells with testing compounds at different concentrations for 7 days, followed by BLI to quantify the effects of test articles on cell proliferation.

[1] = system: CDK8/19-mediated NFκB-driven transcription; test: NFκB-dependent luciferase reporter assay in parental 293 reporter cells; format: cell-based, human; conditions: for Inhibition of NFκB reporter activity / inhibition at 1 µM: 1 uM
[2] = target: CDK8 in complex with Cyclin C (Homo sapiens (Human), UniProt P49336); test: LanthaScreen Eu Kinase Binding Assay
From the text: The binding of the tracer to the kinase is detected using a europium-labeled anti-tag antibody, which binds to the kinase of interest. […] The binding of an inhibitor to the kinase competes for binding with the tracer, resulting in a loss of FRET.

[3] = Mouse pharmacokinetics, intraperitoneal, serum; format: in vivo, mice; conditions: i.p. 27 mg/kg, male Balb/c mice
Description: […] Blood samples were collected at different time points (5 mice per time point) and Senexin C concentration in the serum was measured by LC/MS/MS.

MAP4K2 = MAP4K2 (Homo sapiens (Human), UniProt Q12851); test: DiscoverX Kd assay; conditions: average from duplicate measurements
MYO3B = MYO3B (Homo sapiens (Human), UniProt Q8WXR4); test: DiscoverX Kd assay
CDK8 = CDK8 (Homo sapiens (Human), UniProt P49336); test: DiscoverX Kd assay; conditions: average from duplicate measurements
CDK8/19 = test: Wash-off assay, MYC and JUN expression in 293 cells (QPCR); format: cell-based, human; conditions: 1 μM for 2 hours, then wash-off
Description: RNA was extracted at different time points after wash-off (up to 24 hrs) and expression of MYC and JUN genes that are CDK8/19-dependent in these cells was measured by QPCR. […] In contrast, after Senexin C treatment and wash-off, the effects of Senexin C were largely retained for at least 6 hrs after wash-off.

HASPIN = HASPIN (Homo sapiens (Human), UniProt Q8TF76); test: DiscoverX Kd assay; conditions: average from duplicate measurements
[4] = system: NFκB-dependent promoter in CDK8/19 deficient (double-knockout) reporter cells; test: NFκB-dependent luciferase reporter assay, CDK8/19 double-knockout vs wild-type 293 cells; conditions: double-knockout vs parental reporter cells
From the text: The second cell-based assay measures the effects of CDK8/19 on the expression of firefly luciferase reporter from a NFκB-dependent promoter in 293 cells.

[5] = Homo sapiens, 293/NFkB-luc, read-out: IC50 (293-NFKB-Luc)
[6] = parental 293-derived reporter cell line, read-out: HEK293 NFKB CDK8 Reporter IC50

Chain of CDK8 in complex with Cyclin C (P49336 whole entry): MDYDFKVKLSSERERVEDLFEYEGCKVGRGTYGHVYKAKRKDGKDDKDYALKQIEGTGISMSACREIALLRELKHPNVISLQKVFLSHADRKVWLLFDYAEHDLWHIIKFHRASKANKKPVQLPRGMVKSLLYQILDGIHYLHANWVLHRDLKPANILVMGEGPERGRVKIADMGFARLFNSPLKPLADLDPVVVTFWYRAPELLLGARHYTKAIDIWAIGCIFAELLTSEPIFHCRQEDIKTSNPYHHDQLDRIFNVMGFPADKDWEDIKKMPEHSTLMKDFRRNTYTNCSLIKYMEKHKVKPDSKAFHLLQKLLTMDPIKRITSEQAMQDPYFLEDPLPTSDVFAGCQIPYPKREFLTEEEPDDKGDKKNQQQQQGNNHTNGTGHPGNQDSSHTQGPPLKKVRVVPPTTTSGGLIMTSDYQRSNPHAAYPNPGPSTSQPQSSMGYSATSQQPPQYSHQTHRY
Chain of CDK8 in complex with Cyclin C (P24863 whole entry partner): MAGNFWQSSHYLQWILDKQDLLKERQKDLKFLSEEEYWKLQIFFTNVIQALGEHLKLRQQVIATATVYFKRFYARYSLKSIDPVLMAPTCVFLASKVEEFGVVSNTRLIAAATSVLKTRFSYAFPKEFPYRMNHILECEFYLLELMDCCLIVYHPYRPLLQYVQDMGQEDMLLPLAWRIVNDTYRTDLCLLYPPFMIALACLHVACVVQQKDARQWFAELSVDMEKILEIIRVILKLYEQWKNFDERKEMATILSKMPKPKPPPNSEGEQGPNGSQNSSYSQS
Chain of MYO3B (Q8WXR4 whole entry): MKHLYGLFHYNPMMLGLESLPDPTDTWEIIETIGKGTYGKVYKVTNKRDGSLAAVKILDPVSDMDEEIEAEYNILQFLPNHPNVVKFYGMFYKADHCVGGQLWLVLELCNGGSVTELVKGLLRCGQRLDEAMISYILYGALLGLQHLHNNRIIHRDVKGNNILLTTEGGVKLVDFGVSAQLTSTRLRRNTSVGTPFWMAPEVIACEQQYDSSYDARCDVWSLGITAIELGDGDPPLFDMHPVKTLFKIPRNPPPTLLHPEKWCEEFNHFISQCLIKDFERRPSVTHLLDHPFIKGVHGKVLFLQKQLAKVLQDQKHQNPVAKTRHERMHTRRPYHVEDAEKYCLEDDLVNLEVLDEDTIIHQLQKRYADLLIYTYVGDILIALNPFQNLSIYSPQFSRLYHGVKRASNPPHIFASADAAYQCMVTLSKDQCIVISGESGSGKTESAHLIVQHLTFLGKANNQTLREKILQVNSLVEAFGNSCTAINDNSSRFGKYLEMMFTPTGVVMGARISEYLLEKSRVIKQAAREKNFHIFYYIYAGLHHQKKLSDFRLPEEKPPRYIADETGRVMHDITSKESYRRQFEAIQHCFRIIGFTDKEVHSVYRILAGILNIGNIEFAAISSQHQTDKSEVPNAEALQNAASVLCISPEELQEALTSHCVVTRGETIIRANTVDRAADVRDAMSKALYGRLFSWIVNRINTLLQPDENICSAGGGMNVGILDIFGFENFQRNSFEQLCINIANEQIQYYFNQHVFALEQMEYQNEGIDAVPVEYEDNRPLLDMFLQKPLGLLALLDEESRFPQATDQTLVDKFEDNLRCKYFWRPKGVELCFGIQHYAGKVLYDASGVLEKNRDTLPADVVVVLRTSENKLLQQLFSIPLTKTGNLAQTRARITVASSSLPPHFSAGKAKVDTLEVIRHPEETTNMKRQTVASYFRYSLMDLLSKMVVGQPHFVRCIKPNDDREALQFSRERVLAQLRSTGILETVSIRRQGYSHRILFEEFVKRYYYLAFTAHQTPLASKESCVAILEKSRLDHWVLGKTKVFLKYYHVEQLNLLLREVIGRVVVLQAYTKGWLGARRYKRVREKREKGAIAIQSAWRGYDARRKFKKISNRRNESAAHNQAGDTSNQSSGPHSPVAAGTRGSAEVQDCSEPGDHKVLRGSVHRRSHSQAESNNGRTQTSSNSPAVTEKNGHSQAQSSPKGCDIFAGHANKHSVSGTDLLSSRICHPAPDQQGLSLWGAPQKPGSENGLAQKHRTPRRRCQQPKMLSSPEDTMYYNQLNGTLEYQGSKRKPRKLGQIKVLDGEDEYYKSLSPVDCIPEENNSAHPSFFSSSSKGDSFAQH
Chain of CDK8 (P49336 whole entry): as the sequence (P49336 whole entry) above
Chain of HASPIN (Q8TF76 whole entry): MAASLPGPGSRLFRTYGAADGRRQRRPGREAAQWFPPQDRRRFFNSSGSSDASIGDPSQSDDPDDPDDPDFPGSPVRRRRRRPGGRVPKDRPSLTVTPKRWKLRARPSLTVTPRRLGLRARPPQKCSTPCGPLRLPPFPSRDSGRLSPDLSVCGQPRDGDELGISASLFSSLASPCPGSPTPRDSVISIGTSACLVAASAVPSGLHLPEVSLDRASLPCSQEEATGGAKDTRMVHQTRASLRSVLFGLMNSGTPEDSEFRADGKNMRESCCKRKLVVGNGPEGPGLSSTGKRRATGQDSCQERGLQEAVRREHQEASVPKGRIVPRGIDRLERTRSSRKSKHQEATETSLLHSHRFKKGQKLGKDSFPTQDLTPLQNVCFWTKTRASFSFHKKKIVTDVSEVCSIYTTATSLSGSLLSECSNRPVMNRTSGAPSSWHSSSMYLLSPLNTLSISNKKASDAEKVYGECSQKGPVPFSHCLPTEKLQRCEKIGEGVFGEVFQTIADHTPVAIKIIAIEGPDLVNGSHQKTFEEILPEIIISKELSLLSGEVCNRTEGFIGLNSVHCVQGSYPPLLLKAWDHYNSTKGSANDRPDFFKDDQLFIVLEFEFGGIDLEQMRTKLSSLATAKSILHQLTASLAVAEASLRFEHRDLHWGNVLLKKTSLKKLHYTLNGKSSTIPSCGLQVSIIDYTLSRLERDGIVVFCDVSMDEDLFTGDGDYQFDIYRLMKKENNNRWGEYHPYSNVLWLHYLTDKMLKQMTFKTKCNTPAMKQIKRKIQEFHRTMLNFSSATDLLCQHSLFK
Chain of MAP4K2 (Q12851 whole entry): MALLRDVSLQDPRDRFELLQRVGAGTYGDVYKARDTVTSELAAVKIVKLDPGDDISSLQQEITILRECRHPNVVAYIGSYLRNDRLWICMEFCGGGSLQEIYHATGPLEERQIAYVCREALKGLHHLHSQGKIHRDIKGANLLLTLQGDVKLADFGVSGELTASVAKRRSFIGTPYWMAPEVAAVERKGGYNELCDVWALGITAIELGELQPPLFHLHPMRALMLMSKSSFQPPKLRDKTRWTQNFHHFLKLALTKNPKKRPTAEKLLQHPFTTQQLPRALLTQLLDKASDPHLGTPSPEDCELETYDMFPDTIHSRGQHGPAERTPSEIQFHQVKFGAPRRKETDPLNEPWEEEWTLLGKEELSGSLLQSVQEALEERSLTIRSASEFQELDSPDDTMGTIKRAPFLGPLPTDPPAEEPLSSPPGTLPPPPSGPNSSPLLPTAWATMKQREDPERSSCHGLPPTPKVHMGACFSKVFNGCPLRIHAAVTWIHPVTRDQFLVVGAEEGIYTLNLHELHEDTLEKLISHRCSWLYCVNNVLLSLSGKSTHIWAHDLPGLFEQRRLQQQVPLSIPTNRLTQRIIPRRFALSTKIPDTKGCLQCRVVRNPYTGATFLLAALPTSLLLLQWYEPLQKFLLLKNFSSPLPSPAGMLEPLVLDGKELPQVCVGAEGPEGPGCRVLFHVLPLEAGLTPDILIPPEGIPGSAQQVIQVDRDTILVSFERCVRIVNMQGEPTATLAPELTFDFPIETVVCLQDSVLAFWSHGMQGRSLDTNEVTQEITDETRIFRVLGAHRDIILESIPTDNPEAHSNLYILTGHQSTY

Row | IC50 (HL60-Luc cells) [nM] | IC50 (MV4-11 cells) [nM] | IC50 [2] [nM] | SMILES | IC50 [1, 5] [nM] | other results
1 | – | – | – | CCCNc1ccnc2ccc(C#N)cc12 [compound 6134, 4-(propylamino)quinoline-6-carbonitrile] | – | inhibition at 1 µM (MYC): 57.2%; inhibition at 1 µM (CXCL1): 72.2%; inhibition at 1 µM (IL8): 62.1%
2 | 163 | 218 | 5.8 | N#Cc1ccc2nccc(NCCc3ccc4cc(C(=O)N5CC[S+]([O-])CC5)ccc4c3)c2c1 [compound 6295, 4-[2-[6-(1-oxo-1,4-thiazinane-4-carbonyl)-2-naphthyl]ethylamino]quinoline-6-carbonitrile] | 160 | –
3 | 260 | 275 | 4.6 | N#Cc1ccc2nccc(NCCc3ccc4cc(C(=O)N5CCS(=N)(=O)CC5)ccc4c3)c2c1 [compound 6299, 4-[2-[6-(1-imino-1-oxo-1,4-thiazinane-4-carbonyl)-2-naphthyl]ethylamino]quinoline-6-carbonitrile] | 213 | –
4 | – | – | – | FC(F)(F)c1ccc2nccc(NCCc3ccccc3)c2c1 [compound 6150, N-phenethyl-6-(trifluoromethyl)quinolin-4-amine] | – | Inhibition of NFκB reporter activity [1]: N.A. (10% inh. at 1 uM); inhibition at 1 µM ([1]; Homo sapiens): < 15%
5 | 255 | – | 9.2 | CN(CCCN)C(=O)c1ccc2cc(CCNc3ccnc4ccc(C#N)cc34)ccc2c1 [compound 6337, N-(3-aminopropyl)-6-[2-[(6-cyano-4-quinolyl)amino]ethyl]-N-methyl-naphthalene-2-carboxamide] | 113 | –
6 | 61 | 122 | 8.1 | CC(C)(C)OC(=O)NCCCN1CCN(C(=O)c2ccc3cc(CCNc4ccnc5ccc(C#N)cc45)ccc3c2)CC1 [compound 6345, tert-butyl-(3-(4-(6-(2-((6-cyanoquinolin-4-yl)amino)ethyl)-2-naphthoyl)piperazin-1-yl)propyl)carbamate] | 85 | –
7 | – | – | – | N#Cc1ccc2ncnc(NCCc3ccccc3)c2c1 [Senexin A, reference compound] | – | Inhibition at 1 μM (% Ctrl) MYC (MYC): 24.94%; Inhibition at 1 μM (% Ctrl) CXCL1 (CXCL1): 34.19%; Inhibition at 1 μM (% Ctrl) IL8 (IL8): 29.53%; IC50 [1, 6]: 355 nM
8 | 162 | 295 | 11.7 | CC(=O)N1CCN(C(=O)c2ccc3cc(CCNc4ccnc5ccc(C#N)cc45)ccc3c2)CC1 [compound 6326, 4-[2-[6-(4-acetylpiperazine-1-carbonyl)-2-naphthyl]ethylamino]quinoline-6-carbonitrile] | 178 | –
9 | – | – | – | CC(C)Nc1ccnc2ccc(C#N)cc12 [compound 6136, 4-(isopropylamino)quinoline-6-carbonitrile] | – | inhibition at 1 µM (MYC): 65.6%; inhibition at 1 µM (CXCL1): 80.3%; inhibition at 1 µM (IL8): 74.1%
10 | – | – | – | CN1CCN(C(=O)c2ccc3cc(CCNc4ncnc5ccc(C#N)cc45)ccc3c2)CC1 [Senexin B, reference compound] | – | AUC [3]: 1760.53 ng·h/mL; Cmax [3]: 4248 ng/mL; bioavailability (F %) [3]: 57%; elimination rate k [3]: 3.99 h⁻¹; t1/2 [3]: 10.2 min; Kd (MAP4K2): 570 nM; Inhibition of MYO3B (MYO3B): not inhibited; Kd (CDK8): 59 nM; Time to full restoration of JUN expression after wash-off (CDK8/19): 45 min; Time to full restoration of MYC expression after wash-off (CDK8/19): 2 h; Kd (HASPIN): 1700 nM; IC50 [1, 6]: 117 nM
11 | 308 | – | 6.5 | N#Cc1ccc2nccc(NCCc3ccc4cc(C(=O)N5CCN(CCCN)CC5)ccc4c3)c2c1 [compound 6346, 4-[2-[6-[4-(3-aminopropyl)piperazine-1-carbonyl]-2-naphthyl]ethylamino]quinoline-6-carbonitrile] | 837 | –
12 | – | – | – | Cc1ccc(S(=O)(=O)N[C@@H](Cc2ccccc2)C(=O)CCl)cc1 [TPCK, reference compound] | – | IC50 in CDK8/19-deficient cells relative to wild-type cells [4]: almost the same
13 | 73.4 | 92 | 9.7 | N#Cc1ccc2nccc(NCCc3ccc4cc(C(=O)N5CCSCC5)ccc4c3)c2c1 [compound 6294, 4-[2-[6-(thiomorpholine-4-carbonyl)-2-naphthyl]ethylamino]quinoline-6-carbonitrile] | 107 | –
14 | 154 | 181 | 9.3 | CN(CCCNC(=O)OC(C)(C)C)C(=O)c1ccc2cc(CCNc3ccnc4ccc(C#N)cc34)ccc2c1 [compound 6336, tert-butyl-N-[3-[[6-[2-[(6-cyano-4-quinolyl)amino]ethyl]naphthalene-2-carbonyl]-methyl-amino]propyl]carbamate] | 208 | –
15 | – | – | – | Clc1ccc2nccc(NCCc3ccccc3)c2c1 [compound 6145, 6-chloro-N-phenethylquinolin-4-amine] | – | Inhibition of NFκB reporter activity [1]: N.A. (8% inh. at 1 uM); inhibition at 1 µM ([1]; Homo sapiens): < 15%
16 | – | – | – | Brc1ccc2nccc(NCCc3ccccc3)c2c1 [compound 6146, 6-bromo-N-phenethylquinolin-4-amine] | – | Inhibition of NFκB reporter activity [1]: N.A. (10% inh. at 1 uM); inhibition at 1 µM ([1]; Homo sapiens): < 15%
17 | – | – | – | Ic1ccc2nccc(NCCc3ccccc3)c2c1 [compound 6147, 6-iodo-N-phenethylquinolin-4-amine] | – | inhibition at 1 µM ([1]; Homo sapiens): < 15%
18 | 67 | 146 | 18.9 | CC(C)(C)OC(=O)N1CCN(C(=O)c2ccc3cc(CCNc4ccnc5ccc(C#N)cc45)ccc3c2)CC1 [compound 6440, tert-butyl 4-[6-[2-[(6-cyano-4-quinolyl)amino]ethyl]naphthalene-2-carbonyl]piperazine-1-carboxylate] | 137 | –
19 | – | – | – | Nc1ccc2nccc(NCCc3ccccc3)c2c1 [compound 6164, N4-phenethylquinoline-4,6-diamine] | – | inhibition at 5 µM ([1]; Homo sapiens, 5 uM): 5%

Row | SMILES | IC50 (HL60-Luc cells) [nM] | IC50 (MV4-11 cells) [nM] | IC50 [2] [nM] | IC50 [1, 5] [nM] | other results
20 | N#Cc1ccc2nccc(NCCc3ccc4cc(C(=O)N5CCN(CCCO)CC5)ccc4c3)c2c1 [compound 6216, 4-((2-(6-(4-(3-hydroxypropyl)piperazine-1-carbonyl)naphthalen-2-yl)ethyl)amino)quinoline-6-carbonitrile] | 161 | – | – | – | –
21 | CN(C)C(=O)c1ccc2cc(CCNc3ccnc4ccc(C#N)cc34)ccc2c1 [compound 6219, 6-(2-((6-cyanoquinolin-4-yl)amino)ethyl)-N,N-dimethyl-2-naphthamide] | 77 | – | – | – | –
22 | N#Cc1ccc2nccc(NCCc3ccc4cc(C(=O)N5CCNCC5)ccc4c3)c2c1 [compound 6283, 4-((2-(6-(piperazine-1-carbonyl)naphthalen-2-yl)ethyl)amino)quinoline-6-carbonitrile] | 756 | – | – | – | –
